± gives the standard deviation of the averaged measurements.
How the values were obtained:
Assay in all cases: CTG-3D luminescence at 96 h relative to day-0 seeding control (ratio to day 0); higher = more growth / less cytotoxicity
HCI-019 = test system: HCI-019 (organoid from a triple-negative breast cancer xenograft)
Procedure: (§1)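 PDX-derived breast cancer organoids (PDxO) in 384-well Matrigel plates, 8-point dose (0.000000625-100 uM), 96 h at 37 C; CellTiter-Glo 3D luminescence normalised to the day-0 seeding control (mean of 4 technical replicates over mean of 4 day-0 wells).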

HCI-003.E2 = test system: HCI-003.E2 (organoid from an ER-positive breast cancer xenograft)
Procedure: as §1

HCI-017.E2 = test system: HCI-017.E2 (organoid from an ER-positive breast cancer xenograft)
Procedure: as §1

HCI-023 = test system: HCI-023 (organoid from a triple-negative breast cancer xenograft)
Procedure: as §1

HCI-027 = test system: HCI-027 (organoid from a triple-negative breast cancer xenograft)
Procedure: as §1

HCI-008 = test system: HCI-008 (organoid from a HER2-enriched breast cancer xenograft)
Procedure: (§2)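 PDxO 3D drug screen (set 2), 8-point dose, 96 h; CTG-3D luminescence normalised to day-0 seeding control (mean of 4 wells each).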

HCI-015 = test system: HCI-015 (organoid from a triple-negative breast cancer xenograft)
Procedure: as §2

O=c1[nH]cc(F)c(=O)[nH]1 [5-fluorouracil]
CTG-3D luminescence at 96 h
Settings | 12.5 pM | 0.00025 µM | 0.005 µM | 0.1 µM | 1 µM | 10 µM | 100 µM | 625 fM
HCI-017.E2, days in culture: 85 | 2.76 | 2.47 | 2.46 | 2.16 | 2.41 | 1.85 | 1.6 | 2.21
HCI-019, days in culture: 110 | 2.01 | 1.66 | 1.28 | 2.55 | 1.05 | 2.15 | 1.45 | 2.02
HCI-019, days in culture: 131 | 2.46 | 3.61 | 3.38 | 4.08 | 2.65 | 2.93 | 1.89 | 3.71
HCI-019, days in culture: 152 | 2.48 | 2.79 | 2.59 | 1.85 | 1.99 | 2.54 | 1.96 | 2.62
HCI-023, days in culture: 111 | 1.56 | 1.34 | 0.973 | 1.17 | 0.928 | 0.875 | 0.571 | 1.57
HCI-023, days in culture: 128 | 1.51 ± 0.11 | 1.68 ± 0.4 | 1.54 ± 0.13 | 1.89 ± 0.27 | 1.4 ± 0.022 | 1.92 ± 0.27 | 1.01 ± 0.18 | 1.58 ± 0.063
HCI-027, days in culture: 176 | 2.05 | 1.56 | 2.56 | 1.65 | 2.29 | 0.753 | 0.527 | 1.98
HCI-027, days in culture: 194 | 1.69 | 1.22 | 1.34 | 1.6 | 1.41 | 1.29 | 0.526 | 1.51
HCI-027, days in culture: 201 | 1.96 | 1.99 | 2.23 | 1.8 | 1.26 | 1.05 | 0.398 | 1.53

CTG-3D luminescence at 96 h
Settings | 12.5 pM | 0.00025 µM | 0.005 µM | 0.1 µM | 1 µM | 10 µM | 100 µM | 625 fM
HCI-003.E2 | 2.25 ± 0.87 | 2.06 ± 0.55 | 1.93 ± 0.35 | 2.08 ± 0.4 | 1.85 ± 0.5 | 1.87 ± 0.53 | 0.993 ± 0.17 | 2.19 ± 0.32
HCI-017.E2 | 1.94 ± 0.43 | 2.02 ± 0.06 | 1.96 ± 0.33 | 2.04 ± 0.22 | 2.05 ± 0.042 | 1.88 ± 0.088 | 1.64 ± 0.33 | 2.219 ± 0.0082

CC/C(=C(\c1ccc(O)cc1)c1ccc(OCCN(C)C)cc1)c1ccccc1 [4-hydroxytamoxifen]
CTG-3D luminescence at 96 h
Settings | 12.5 pM | 0.00025 µM | 0.005 µM | 0.1 µM | 1 µM | 10 µM | 100 µM | 625 fM
HCI-008, days in culture: 325 | 1.16 | 3.13 | 1.6 | 3.49 | 3.48 | 2.12 | 0.0259 | 1.52
HCI-008, days in culture: 340 | 1.38 | 1.51 | 1.18 | 1.09 | 1.46 | – | 0.00621 | 1.32
HCI-008, days in culture: 354 | 1.2 | 1.03 | 2.12 | 1.34 | 1.26 | 1.3 | 0.00452 | 0.999
HCI-008, days in culture: 382 | 1.86 | 1.74 | 1.28 | 1.63 | 0.792 | 1.56 | 0.0061 | 1.74
HCI-015, days in culture: 333 | 1.04 | 1.94 | 1.26 | 1.29 | 1.39 | 0.469 | 0.0144 | 2.19
HCI-015, days in culture: 355 | 3.76 | 3.54 | 1.5 | 2.75 | 0.935 | 1.57 | 0.00605 | 1.84
HCI-015, days in culture: 369 | 2.01 | 1.59 | 2.11 | 1.32 | 1.19 | 0.943 | 0.00584 | 1.66

From the supplement of paper PMC8882468
